Consider 20 compounds from patent US6410580B1, “Sulfonylamino derivatives which inhibit matrix-degrading metalloproteinases” (Novartis AG, priority 2000, dated 2002).

By melting point is commonly meant the temperature, or range, at which the solid turns liquid. `O=C(O)[C@@H](CCCN1C(=O)c2ccccc2C1=O)NS(=O)(=O)c1ccc(-c2ccc(Cl)cc2)cc1` [Example 1, (2R)-(4′-Chlorobiphenyl-4-sulfonylamino)-5-(1,3-dioxo-1,3-dihydroisoindol-2-yl)pentanoic Acid] gave a melting point of 179 to 181 °C.

With `O=C(NO)[C@@H](CCCN1C(=O)c2ccccc2C1=O)NS(=O)(=O)c1ccc(-c2ccc(Cl)cc2)cc1` [Example 2, (2R)-(4′-Chiorobiphenyl4-sulfonylamino)-5-(1,3-dioxo-1,3-dihydroisoindol-2-yl)pentanoic Acid Hydroxyamide], the melting point is 204 to 206 °C (dec.). For `O=C(O)[C@@H](CCCN1C(=O)c2ccccc2S1(=O)=O)NS(=O)(=O)c1ccc(-c2ccc(Cl)cc2)cc1` [Example 3, (2R)-(4′-Chlorobiphenyl-4-sulfonylamino)-5-(1,1,3-trioxo-2,3-dihydrobenzoisothiazol-2-yl)pentanoic Acid] the value was 177 to 179 °C; for `Cn1c(=O)n(CCC[C@@H](NS(=O)(=O)c2ccc(-c3ccc(Cl)cc3)cc2)C(=O)O)c(=O)c2ccccc21` [Example 4, (2R)-(4′-Chlorobiphenyl-4-sulfonylamino)-5-(1,2,3,4-tetrahydro-1-methyl-2,4-dioxoquinazolin-3-yl)pentanoic Acid], 188 to 191 °C; for `Cn1c(=O)n(CCC[C@@H](NS(=O)(=O)c2ccc(-c3ccccc3)cc2)C(=O)O)c(=O)c2ccccc21` [Example 5, (2R)-(4-Biphenylsulfonylamino)-5-(1,2,3,4-tetrahydro-1-methyl-2,4-dioxoquinazolin-3-yl)pentanoic Acid], 222 to 224 °C. With `Cc1ccc(S(=O)(=O)NCCC[C@@H](NS(=O)(=O)c2ccc(-c3ccc(Cl)cc3)cc2)C(=O)O)cc1` [Example 7, (2R)-(4′-Chlorobiphenyl-4-sulfonylamino)-5-(4-methylbenzenesulfonylamino)pentanoic Acid] the figure was 62 °C; with `O=C(NO)[C@@H](CCCN1C(=O)c2ccccc2S1(=O)=O)NS(=O)(=O)c1ccc(-c2ccc(Cl)cc2)cc1` [Example 18, (2R)-(4′-Chlorobiphenyl-4-sulfonylamino)-5-(1,1,3-trioxo-2,3-dihydrobenzoisothiazol-2-yl)pentanoic Acid Hydroxyamide], 200 to 205 °C (dec.). With `Cn1c(=O)n(CCC[C@@H](NS(=O)(=O)c2ccc(-c3ccc(Cl)cc3)cc2)C(=O)NO)c(=O)c2ccccc21` [Example 19, (2R)-(4′-Chlorobiphenyl-4-sulfonylamino)-5-(1,2,3,4-tetrahydro-1-methyl-2,4-dioxoquinazolin-3-yl)pentanoic Acid Hydroxyamide] the figure was 235 °C; with `Cn1c(=O)n(CCC[C@@H](NS(=O)(=O)c2ccc(-c3ccccc3)cc2)C(=O)NO)c(=O)c2ccccc21` [Example 20, (2R)-(4-Biphenylsulfonylamino)-5-(1,2,3,4-tetrahydro-1-methyl-2,4-dioxoquinazolin-3-yl)pentanoic Acid Hydroxyamide], 202 to 203 °C; with `Cn1c(=O)n(CCCCC(NS(=O)(=O)c2ccc(-c3ccc(Cl)cc3)cc2)C(=O)O)c(=O)c2ccccc21` [Example 31, (2R,S)-(4′-Chlorobiphenyl-4-sulfonylamino)-6-(1,2,3,4-tetrahydro-1-methyl-2,4-dioxoquinazolin-3-yl)hexanoic Acid], 208 to 210 °C. For `CC1(C)NC(=O)N(CCCCC(NS(=O)(=O)c2ccc(-c3ccc(Cl)cc3)cc2)C(=O)O)C1=O` [Example 32, (2R,S)-(4′-Chlorobiphenyl-4-sulfonylamino)-6-(4,4-dimethyl-2,5-dioxoimidazolidin-1-yl)-hexanoic Acid], the melting point fell in the range of 78 to 80 °C. For `CN1C(=O)N(CC[C@@H](NS(=O)(=O)c2ccc(-c3ccc(Cl)cc3)cc2)C(=O)O)C(=O)C1(C)C` [Example 35, (2R)-(4′-Chlorobiphenyl-4-sulfonylamino)-4-(3,4,4-trimethyl-2,5-dioxoimidazolidin-1-yl)-butyric Acid] the value was 43 °C; for `O=C(O)[C@@H](CCN1C(=O)[C@@H]2Cc3ccccc3CN2C1=O)NS(=O)(=O)c1ccc(-c2ccc(Cl)cc2)cc1` [Example 36, (2R)-(4′-Chlorobiphenyl-4-sulfonylamino)-4-[(1,3-dioxo-1,5,10, (10aS)-tetrahydroimidazo-[1,5-b]isoquinolin-2-yl)]butyric Acid], 70 °C; for `CN1C(=O)N(CC[C@@H](NS(=O)(=O)c2ccc(-c3ccc(Cl)cc3)cc2)C(=O)NO)C(=O)C1(C)C` [Example 38, (2R)-(4′-Chlorobiphenyl-4-sulfonylamino)-4-(3,4,4-trimethyl-2,5-dioxoimidazolidin-1-yl)-butyric Acid Hydroxyamide], 117 to 120 °C.

Compound `CN1C(=O)N(CC(NS(=O)(=O)c2ccc(-c3ccc(Cl)cc3)cc2)C(=O)O)C(=O)C1(C)C` [Example 39, (2R,S)-(4′-Chlorobiphenyl-4-sulfonylamino)-3-(3,4,4-trimethyl-1,2,5-dioxoimidazolidin-1-yl)propanoic Acid] showed a melting point of 198 to 201 °C.

Regarding `Cn1c(=O)n(CC(NS(=O)(=O)c2ccc(-c3ccc(Cl)cc3)cc2)C(=O)O)c(=O)c2ccccc21` [Example 40, (2R,S)-(4′-Chlorobiphenyl-4-sulfonylamino)-3-(1,2,3,4-tetrahydro-1-methyl-2,4-dioxoquinazolin-3-yl)propanoic Acid], the melting point is 218 °C (dec.). For `O=C(O)[C@@H](CC(=O)N1CCOCC1)NS(=O)(=O)c1ccc(Oc2ccccc2)cc1` [Example 42, (2R)-(4-Phenyloxybenzenesulfonylamino)-4-morpholin-4-yl-4-oxobutyric Acid] the value was 147 to 149 °C; for `O=C(O)[C@@H](CC(=O)N1CCOCC1)NS(=O)(=O)c1ccc(-c2ccc(Cl)cc2)cc1` [Example 43, (2R)-(4′-Chlorobiphenyl-4-sulfonylamino)-4-morpholin-4-yl-4-oxobutyric Acid], 144 to 146 °C. For `O=C(NO)[C@@H](CC(=O)N1CCOCC1)NS(=O)(=O)c1ccc(Oc2ccccc2)cc1` [Example 44, (2R)-(4-Phenyloxybenzenesulfonylamino)-4-morpholin-4-yl-4-oxobutyric Acid Hydroxyamide] the value was 161 to 163 °C; for `O=C(NO)[C@@H](CC(=O)N1CCOCC1)NS(=O)(=O)c1ccc(-c2ccc(Cl)cc2)cc1` [Example 45, (2R)-(4′-Chlorobiphenyl-4-sulfonylamino)-4-morpholin-4-yI-4-oxobutyric Acid Hydroxyamide], 139 to 141 °C.
